The source made the active and inactive calls. The calls are words filed in the database; no cut-off is given here.
Legend:
3T3-L1 [1] = experiment: Cytotoxicity against mouse 3T3-L1 cells assessed as reduction in cell viability at 20 uM by CCK-8 assay; format: toxicity, cell-based; conditions: 3t3-l1, 20 µM
3T3-L1 [2] = experiment: Anti-adipogenic efficacy in mouse 3T3-L1 cells assessed as inhibition of TG level by Oil Red O staining based light microscopic analysis; format: functional, cell-based
3T3-L1 [3] = experiment: Anti-adipogenic efficacy in mouse 3T3-L1 cells assessed as inhibition of TG level at 1 uM by Oil Red O staining based light microscopy analysis; format: functional, cell-based
3T3-L1 [4] = experiment: Anti-adipogenic efficacy in mouse 3T3-L1 cells assessed as reduction in PPARgamma mRNA level by RT-qPCR analysis; format: functional, cell-based; conditions: dose 0.1-10 µM
3T3-L1 [5] = experiment: Anti-adipogenic efficacy in mouse 3T3-L1 cells assessed as reduction in C/EBPbeta mRNA level by RT-qPCR analysis; format: functional, cell-based; conditions: dose 0.1-10 µM
3T3-L1 [6] = experiment: Anti-adipogenic efficacy in mouse 3T3-L1 cells assessed as reduction in FAS mRNA level by RT-qPCR analysis; format: functional, cell-based; conditions: dose 0.1-10 µM
3T3-L1 [7] = experiment: Anti-adipogenic efficacy in mouse 3T3-L1 cells assessed as reduction in SCD-1 mRNA level by RT-qPCR analysis; format: functional, cell-based; conditions: dose 0.1-10 µM
3T3-L1 [8] = experiment: Anti-adipogenic efficacy in mouse 3T3-L1 cells assessed as reduction in PPARgamma protein level by Western blot analysis; format: functional, cell-based; conditions: dose 0.1-10 µM
3T3-L1 [9] = experiment: Anti-adipogenic efficacy in mouse 3T3-L1 cells assessed as reduction in C/EBPbeta protein level by Western blot analysis; format: functional, cell-based; conditions: dose 0.1-10 µM
3T3-L1 [10] = experiment: Anti-adipogenic efficacy in mouse 3T3-L1 cells assessed as reduction in FAS protein level by Western blot analysis; format: functional, cell-based; conditions: dose 0.1-10 µM
3T3-L1 [11] = experiment: Anti-adipogenic efficacy in mouse 3T3-L1 cells assessed as reduction in SCD-1 protein level by Western blot analysis; format: functional, cell-based; conditions: dose 0.1-10 µM
3T3-L1 [12] = experiment: Anti-adipogenic efficacy in mouse 3T3-L1 cells assessed as increase in p-AMPK level at 0.1 to 10 uM by Western blot analysis; format: functional, cell-based; conditions: dose 0.1-10 µM
3T3-L1 [13] = experiment: Anti-adipogenic efficacy in mouse 3T3-L1 cells assessed as increase in p-ACC level at 0.1 to 10 uM by Western blot analysis; format: functional, cell-based; conditions: dose 0.1-10 µM

Row | Structure (SMILES) | Activity (3T3-L1 [1]) | EC50 (3T3-L1 [2]) [nM] | Activity (3T3-L1 [3]) | Activity (3T3-L1 [4]) | Activity (3T3-L1 [5]) | Activity (3T3-L1 [6]) | Activity (3T3-L1 [7]) | Activity (3T3-L1 [8]) | Activity (3T3-L1 [9]) | Activity (3T3-L1 [10]) | Activity (3T3-L1 [11]) | Activity (3T3-L1 [12]) | Activity (3T3-L1 [13])
1 | CC1=C[C@@H]2C(=O)[C@]3(C=C(C)[C@H](OC(=O)C(C)C(C)C)[C@@]3(O)[C@@H]1O)[C@H](C)C[C@@H]1[C@H]2C1(C)C (stereo not given in full) | Non-Toxic | 600 | Active | Dose-Dependent Effect | Dose-Dependent Effect | Dose-Dependent Effect | Dose-Dependent Effect | Dose-Dependent Effect | Dose-Dependent Effect | Dose-Dependent Effect | Dose-Dependent Effect | Active | Active
2 | C=C1C[C@]23O[C@@](O)([C@@]4(O)C[C@H](C)[C@H](OC(=O)c5ccccc5)[C@@H]4[C@H]1OC(=O)c1ccccc1)[C@]1(C)O[C@](C)(CC2=O)C[C@H]31 |  | 360 |  |  |  |  |  |  |  |  |  |  | 
3 | C=C1C[C@]2(O)C(=O)C(C)(C)C[C@H]2C2=CC(=O)[C@]3(C[C@H](C)[C@H](OC(=O)c4ccccc4)[C@@H]3[C@H]1OC(=O)c1ccccc1)O2 |  | 200 |  |  |  |  |  |  |  |  |  |  | 

— ChEMBL document CHEMBL5390286, “Discovery of Ingenane Diterpenoids from Euphorbia hylonoma as Antiadipogenic Agents” (J Nat Prod, 2023)
